Reference: US20130022641A1, “Anti-Tumor Agent and Immunostimulating Agent” (ORION BREWERIES, LTD., priority 2005, published 2013)

Columns and labels:
Format in all cases: in vivo, C57BL/6 mice
[1] = system: NKT cells (CD3+NK1.1+); assay: Annexin V detection of apoptosis in liver NKT cell fractions; details: 2 μg/mouse; 24 hours after dosing; normal mice peak around 10
Protocol: (§1) The basic method for the experiment is the same as that of the third embodiment. C57BL/6 8th-week mice were used. […] And 2 μg/mouse of αGalcer was likewise administered. After 24 hours following the dosing, lymphocytes had been separated from the livers of the mice over time. Triple labeling immunostaining was undertaken by fluorescently-labeled monoclonal antibody based on […] anti-CD3 antibody (Pharmingen) and PE-labeled anti-NK1.1 antibody (Pharmingen) for detection of NKT cells (CD3^+NK1.1^+), and FITC labeled Annexin V (Pharmingen) for detection of apoptosis cells. The method for immunostaining was subject to that of Non-Patent Document 1. Next, PerCP and PE were detected via flow cytometric analysis (FACSCalibur, Becton-Dickinson). Based on the fluorescence intensity thereof, NKT cells fractions (areas shown in c of FIG. 13) were obtained. […] According to the embodiment, cells which caused apoptosis within the fractions were detected via measurement of fluorescence intensity of FITC in such fractions. […]
(§2) Histograms of mouse NKT cell fractions and T cell fractions of unprocessed normal mouse cells are shown (A and D). […] The fluorescence intensity of fluorescent substance C is shown on the horizontal axis and the number of cells (in units) is shown on the vertical axis for each profile. […]

[2] = system: INF-γ; assay: Level of INF-γ in serum by ELISA; details: 2 μg/mouse αGalcer, normal mouse about 40 μg/ml, FIG. 14
Protocol: Mice prepared in the third embodiment were used. After about 1 ml of blood had been collected from each mouse over time, serum was separated. The level of INF-γ in such serum was measured in accordance with the ELISA test. In regards to the ELISA test, a BD Opt EIA set (Pharmingen) was used, and the method was subject to the attached protocol.

[3] = system: GPT; assay: Transaminase values in the serums (GPT), liver damage; details: 2 μg/mouse, serum, normal mice about 11 IU/L
Protocol: The mice prepared in the third embodiment were used. After collecting about 1 ml of blood from each mouse over time, serums were separated. Transaminase values in the serums (GPT) were measured using of a Transaminase CII Test Wake (Wake Pure Chemical Industries, Ltd) as an extracorporeal diagnostic kit. The method for measurement was subject to the protocol attached with the kit. In addition, generally speaking, red cells of mice are easily hemolyzed. Thus. GOT values regarding which errors easily occur to results of measurements are not presented herein.
Herein, first, brief explanations are given in regards to GPT in the serums. GPT normally functions in liver cells. Due to destruction of […] caused by liver damage, such as hepatitis and the like, GPT leaks into the blood. Thus, increase of GPT values in the blood is an index of liver damage. Generally, it is understood that liver damage, such as hepatitis and the like, exists when the figures are greater than 100 IU (international unit)/L (liter).

[4] = system: NKT cells of the liver; assay: Flow cytometric analysis of liver NKT cells after intraperitoneal administration; details: 2 μg/mouse, abdominal cavity
Protocol: C57BL/6 8th-week mice were used. […] Additionally, individuals that received 2 μg/mouse were used as positive controls. After dosing, lymphocytes were separated from the livers of the mice over time. Double labeling immunostaining was undertaken with 2 types of h monoclonal antibodies. FITC-labeled anti-CD3 (Phatrningen) and PE-labeled anti-NK1.1 (Pharmingen). Thereafter, flow cytometric analysis (FACSCalibur, Becton-Dickinson) was undertaken for dynamic states of NKT cells. In addition, a method of lymphocyte separation from the livers and the immunostaining method were subject to the methods of Non-Patent Document 7.
Cytograms show fluorescence intensities for FITC-labeled anti-CD3 on the horizontal axis and PE-labeled anti-NK1.1 antibody on the vertical axis in a log scale fashion. The larger the fluorescence intensities for FITC, the greater the number of CD3 molecules on the surfaces of cells. And the larger the PE fluorescence intensities, the greater the number of NK1.1 molecules on the measured surfaces of cells. […] Additionally, numeric values within the fractions represent the percentages of cells included in such fractions relative to all measured cells.

[5] = system: T cells; assay: Annexin V detection of apoptosis in liver T cell fractions (control); details: 2 μg/mouse; 24 hours after dosing
Protocol: as §1, §2

CCCCCCCCCCCCCCCCCCCCCCCCCC(=O)N[C@@H](CO[C@H]1O[C@H](CO)[C@H](O)[C@H](O)[C@H]1O)[C@H](O)[C@H](O)CCCCCCCCCCCCCC [αGalCer, a-Galactosyl ceramide]
peak of Annexin V fluorescence intensity in NKT cell fraction [1]: ~200 | level of INF-γ in the blood [2]: about 3,000 μg/ml | GPT values ([3]; after 12 hours): 116 IU/L | GPT values ([3]; after 24 hours): 183 IU/L | NKT cells in the liver ([4]; 24 hours following administration): such tendency had not changed | NKT cells in the liver ([4]; within 12 hours following dosing): most NKT cells in the liver disappeared | apoptosis induction in T cells [5]: Apoptosis induction could not be recognized
